Source: US9045525B2, “Amyloid β-protein-specific production-inhibiting polypeptide” (THE DOSHISHA, priority 2012, dated 2015)
Entries after “also recorded” stand apart in the source; their conditions may differ.

Tests used:
[1] = tested on: CHO-K1 cells (7WD10 cells) that stably expressed APP protein; test: Aβ protein production inhibition experiment in 7WD10 cells (sAPPβ, βCTF, Aβ); format: cell-based
Procedure: (§1) An experiment was conducted wherein #1, #2, and #4 polypeptides were reacted with CHO-K1 cells (7WD10 cells) that stably expressed APP protein and transiently expressed Notch to confirm the production of Aβ protein and cleavage of Notch protein.

[2] = tested on: Notch transiently expressed in CHO-K1 cells (7WD10 cells); test: Cleavage of Notch protein (NICD) in 7WD10 cells; format: cell-based; conditions: for NICD in the cell lysate: polypeptide 25 or 50 μM; for abundance of the NICD in the cell lysate: polypeptide 1, 5, 10, 20, and 50 μM
Procedure: as §1

[3] = reported in NPL 1; cited from earlier work
[4] = biological target: γ-secretase against βCTF (C99-FLAG) (Homo sapiens, UniProt P05067); test: γ-Secretase activity inhibition experiment in vitro, C99-FLAG substrate; format: biochemical; conditions: for cleavage activity of γ-secretase against βCTF (Aβ40 from C99-FLAG): polypeptide 50 μM, 4 hours, 37° C., Western blotting
Procedure: (§2) A polypeptide having βCTF (C99-FLAG: SEQ ID NO: 16) and mouse-derived Notch protein having a FLAG peptide at the C-terminal side (modification of NCBI Accession No. Q01705.2; SEQ ID NO: 17; hereunder referred to as “Notch”) shown in FIG. 2(A) were each made into a solution having a final concentration of 50 nM.
(§3) To these solutions, 9-7 polypeptide, 6-5 polypeptide, #1 polypeptide, #2 polypeptide, #3 polypeptide, and #4 polypeptide were added in such a manner that the final concentrations were 50 μM, followed by reacting with 50 μL of CHAPSO-solubilized membrane fraction (γ-secretase-containing fraction) for 4 hours. The reaction temperature was 37° C. As a negative control experiment, DMSO was used in place of the six types of polypeptides described above.
(§4) Each sample after completion of the reaction was measured in the following manner. As shown in FIG. 2(A), a sample using C99-FLAG was subjected to Western blotting using a monoclonal antibody (82E-1) that specifically recognizes the N terminal of C99-FLAG, and the amount of Aβ40 protein produced by the cleavarage by γ-secretase was measured. In contrast, the reaction sample using Notch-FLAG was subjected to Western blotting using an anti-FLAG monoclonal antibody, and the amount of NICD produced to the separete by γ-secretase was also measured. FIG. 2(B) and FIG. 2(C) show the results.
(§5) An experiment was conducted in the same manner as in Experimental Example 1 described above, except that only #1 polypeptide was used and the amount of #1 polypeptide was selected so that the final concentrations were 0.5, 1, 5, 10, 20, and 50 μM.
(§6) An experiment was conducted in the same manner as in Experimental Example 1 described above, except that S4 polypeptide was used as the polypeptide, and each addition amount was set in such a manner that the final concentrations were 1, 5, 10, 20, and 50 μM. In this Experimental Example, #4 polypeptide was added in such a manner that the final result was 50 μM.

[5] = biological target: β-secretase against APP (APP-EQ-FLAG) (Homo sapiens, UniProt P05067); test: β-Secretase activity inhibition experiment in vitro, APP-EQ-FLAG substrate; format: biochemical; conditions: polypeptide 50 μM, 4 hours, 37° C., Western blotting
Procedure: A solution containing the polypeptide having APP (APP-EQ-FLAG: SEQ ID NO: 18) as shown in FIG. 5(A) was prepared in such a manner that its final concentration was 50 nM.
To this solution, 9-7 polypeptide, 6-5 polypeptide, #1 polypeptide, #2 polypeptide, #3 polypeptide, #4 polypeptide, #5 polypeptide, #6 polypeptide, #7 polypeptide, #8 polypeptide, #9 polypeptide, and #10 polypeptide were added in such a manner that each solution had the final concentration of 50 μM, followed by reacting with 50 μL β-secretase (0.02 U/μL) for 4 hours. The reaction temperature was 37° C. As a negative control experiment, DMSO was used in place of the 12 types of polypeptides mentioned above.
After completion of the reaction, each sample was subjected to Western blotting using a monoclonal antibody (82E-1) that specifically recognizes the N terminal of APP-EQ-FLAG as shown in FIG. 5(A). Thereafter, the amount of Aβ33-FLAG protein separated by β-secretase was measured.
An experiment was conducted in the same manner as Experimental Example 4 described above except that S4 and #4 polypeptides were used as the polypeptide and the amounts of these polypeptides added were adjusted so that the final concentrations were 1, 5, 10, 20, 50, and 100 μM.

[6] = tested on: CHO-K1 cells; test: Mouse Aβ production inhibition experiment, CHO-K1 cells; format: cell-based; conditions: polypeptide 20 μM, CHO-K1 cells expressing mouse-type APP, anti-mouse Aβ antibody Western blotting
Procedure: (§7) #1, #2, and #4 polypeptides were added to the culture solutions of CHO-K1 cells and Neuro 2A cells (N2A) in such a manner that the final concentration was 20 μM. As a control, L685458 (i.e., a γ-secretase inhibitor) and DMSO were added thereto in such a manner that the final concentration was 20 μM.
(§8) Thereafter, Aβ contained in the cell culture medium was identified by using a Western-blotting method with an antibody (anti-mouse Aβ antibody) that recognizes Aβ. […] In the figure, L indicates L685458, which is a γ-secretase inhibitor (final concentration of 1 μM).

[7] = tested on: Neuro 2A cells (N2A); test: Mouse Aβ production inhibition experiment, Neuro 2A cells; format: cell-based; conditions: polypeptide 20 μM, Neuro2A cells expressing mouse-type APP, anti-mouse Aβ antibody Western blotting
Procedure: as §7, §8

[8] = biological target: γ-secretase against Notch (Mus musculus, UniProt Q01705, V1997L); test: γ-Secretase activity inhibition experiment in vitro, Notch-FLAG substrate; format: biochemical
Procedure: as §2, §3, §4, §5, §6

[9] = polypeptide 1, 5, 10, 20, and 50 μM
[10] = polypeptide 0.5, 1, 5, 10, 20, and 50 μM

γ-secretase against βCTF (C99-FLAG), sequence (P05067 with tags, fused parts or gaps): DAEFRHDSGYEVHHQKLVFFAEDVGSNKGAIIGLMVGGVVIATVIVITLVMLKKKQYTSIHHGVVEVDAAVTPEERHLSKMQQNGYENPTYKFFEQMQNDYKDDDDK
β-secretase against APP (APP-EQ-FLAG), sequence (P05067 with tags, fused parts or gaps): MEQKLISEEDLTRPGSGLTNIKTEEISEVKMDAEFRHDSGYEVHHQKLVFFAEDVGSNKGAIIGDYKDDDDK
γ-secretase against Notch, sequence (Q01705 with tags, fused parts or gaps V1997L): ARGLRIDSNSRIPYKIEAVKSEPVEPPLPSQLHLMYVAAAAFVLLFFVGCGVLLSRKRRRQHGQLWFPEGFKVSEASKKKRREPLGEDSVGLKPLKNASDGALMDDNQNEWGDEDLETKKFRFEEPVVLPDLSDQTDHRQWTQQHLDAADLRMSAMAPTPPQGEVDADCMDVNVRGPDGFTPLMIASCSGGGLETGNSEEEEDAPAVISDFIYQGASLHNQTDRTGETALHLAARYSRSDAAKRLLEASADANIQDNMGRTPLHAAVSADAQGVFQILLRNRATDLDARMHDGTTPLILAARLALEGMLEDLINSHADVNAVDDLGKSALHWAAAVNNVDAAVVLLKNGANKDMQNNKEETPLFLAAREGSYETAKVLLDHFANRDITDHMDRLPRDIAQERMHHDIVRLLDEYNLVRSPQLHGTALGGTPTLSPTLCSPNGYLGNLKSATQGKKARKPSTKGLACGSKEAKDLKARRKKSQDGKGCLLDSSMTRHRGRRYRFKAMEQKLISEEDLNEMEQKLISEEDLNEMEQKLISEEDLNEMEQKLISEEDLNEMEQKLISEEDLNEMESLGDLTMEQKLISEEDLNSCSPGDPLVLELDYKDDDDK

CC(C)C[C@H](NC(=O)[C@H](Cc1ccccc1)C[C@@H](O)[C@H](Cc1ccccc1)NC(=O)OC(C)(C)C)C(=O)N[C@@H](Cc1ccccc1)C(N)=O [L685458, reference compound]
Aβ protein in the cell culture medium (released Aβ) ([1]; L685458 1 μM): decreased | Aβ protein in the cell lysate (intracellular Aβ) ([1]; L685458 1 μM): decrease in βCTF (C99) and Aβ protein was also observed | sAPP in the cell lysate ([1]; L685458 1 μM): such a phenomenon was not observed | βCTF (C99) in the cell lysate ([1]; L685458 1 μM): decrease in βCTF (C99) and Aβ protein was also observed | amount of NICD in the cell lysate ([2]; L685458 1 μM): the amount of NICD was decreased

C[C@H](NC(=O)[C@@H](O)c1cc(F)cc(F)c1)C(=O)N[C@@H]1C(=O)N(C)c2ccccc2-c2ccccc21 [LY-411,575]
effect on the thymus [3]: induces atrophy of the thymus | number of mature B cells in the spleen [3]: reduces the number of mature B cells in the spleen

FRBGWVYTYTV (FRXGWVYTYTV; HELM PEPTIDE1{[ac].F.R.[O=C([C@H](Cc1ccc(-c2ccccc2)cc1)N[*:1])[*:2]].G.W.V.Y.T.Y.T.V.[am]}$$$$V2.0; SMILES CC(=O)N[C@@H](Cc1ccccc1)C(=O)N[C@@H](CCCNC(=N)N)C(=O)N[C@@H](Cc1ccc(-c2ccccc2)cc1)C(=O)NCC(=O)N[C@@H](Cc1c[nH]c2ccccc12)C(=O)N[C@H](C(=O)N[C@@H](Cc1ccc(O)cc1)C(=O)N[C@H](C(=O)N[C@@H](Cc1ccc(O)cc1)C(=O)N[C@H](C(=O)N[C@H](C(N)=O)C(C)C)[C@@H](C)O)[C@@H](C)O)C(C)C) [S2, B is L-4,4′-biphenylalanine (Bph) residue]
Aβ protein in the cell culture medium ([1]; polypeptide final concentration of 50 μM): exhibited the Aβ protein production inhibition effect almost to the same level as #4 polypeptide and S4 polypeptide | NICD in the cell lysate [2]: did not have any influence on NICD

MDTVICDCYCDNYVCFCYSCSHV (Ac-MDTVICDCYCDNYVCFCYSCSHV-NH2; cysteine pairing not given here) [#2]
cleavage activity of γ-secretase against βCTF (Aβ40 from C99-FLAG) [4]: inhibited more cleavage activity of γ-secretase against βCTF | cleavage activity of β-secretase against APP (Aβ33-FLAG) [5]: inhibit the cleavage activity of β-secretase against APP more intensely | Aβ protein in the cell culture medium (released Aβ) [1, 9]: decreased depending on the concentration | Aβ protein in the cell lysate (intracellular Aβ) [1, 9]: no longer present in a manner dependent on the final concentration | sAPP in the cell lysate [1, 9]: no longer present in a manner dependent on the final concentration | βCTF (C99) in the cell lysate [1, 9]: no longer present in a manner dependent on the final concentration | abundance of the NICD in the cell lysate [2]: not decreased | production of Aβ in the culture medium [6]: the production of Aβ in the culture medium was reduced | production of Aβ in the culture medium [7]: the production of Aβ in the culture medium was reduced

MGLISCDCYCDSTACFCYSCTDF (Ac-MGLISCDCYCDSTACFCYSCTDF-NH2; cysteine pairing not given here) [#3]
cleavage activity of β-secretase against APP (Aβ33-FLAG) [5]: inhibit the cleavage activity of β-secretase against APP more intensely

MGRVNCDCYCIGHYCYCYYCHNI (Ac-MGRVNCDCYCIGHYCYCYYCHNI-NH2; cysteine pairing not given here) [#8]
cleavage activity of β-secretase against APP (Aβ33-FLAG) [5]: inhibit the cleavage activity of β-secretase against APP more intensely

MLICDCYCDPRSCICGSCTLV (Ac-MLICDCYCDPRSCICGSCTLV-NH2; cysteine pairing not given here) [L13]
Aβ protein in the cell culture medium ([1]; polypeptide 25 or 50 μM): did not inhibit the production of Aβ | NICD in the cell lysate [2]: did not have any affect on NICD

MLYTSCDCYCDAFSCFCYSCGPY (Ac-MLYTSCDCYCDAFSCFCYSCGPY-NH2; cysteine pairing not given here) [#6]
cleavage activity of β-secretase against APP (Aβ33-FLAG) [5]: inhibit the cleavage activity of β-secretase against APP more intensely

MPLSICDCYCISTICYCYFCVHR (Ac-MPLSICDCYCISTICYCYFCVHR-NH2; cysteine pairing not given here) [#9]
cleavage activity of β-secretase against APP (Aβ33-FLAG) [5]: inhibit the cleavage activity of β-secretase against APP more intensely

MPTVYCDCYCAYNACYCYYCRSD (Ac-MPTVYCDCYCAYNACYCYYCRSD-NH2; cysteine pairing not given here) [#10]
cleavage activity of β-secretase against APP (Aβ33-FLAG) [5]: inhibit the cleavage activity of β-secretase against APP more intensely

MSIRVCDCYCHGDLCFCYSCINS (Ac-MSIRVCDCYCHGDLCFCYSCINS-NH2; cysteine pairing not given here) [#1]
cleavage activity of γ-secretase against βCTF (Aβ40 from C99-FLAG) [4]: inhibited more cleavage activity of γ-secretase against βCTF; also recorded: inhibited the cleavage activity of γ-secretase against Aβ protein | cleavage activity of γ-secretase against βCTF [4, 10]: more intensively inhibits the cleavage activity of γ-secretase against βCTF in a concentration-dependent manner; also recorded: inhibited the cleavage activity of γ-secretase against βCTF in a concentration-dependent manner | cleavage activity of γ-secretase against Notch (NICD) ([8]; polypeptide 50 μM, 4 hours, 37° C., Western blotting): did not inhibit the cleavage activity against Notch | cleavage activity of γ-secretase against Notch (NICD) [8, 10]: did not inhibit the cleavage activity of γ-secretase against Notch | cleavage activity of β-secretase against APP (Aβ33-FLAG) [5]: inhibit the cleavage activity of β-secretase against APP more intensely | Aβ protein in the cell culture medium (released Aβ) [1, 9]: decreased depending on the concentration | Aβ protein in the cell lysate (intracellular Aβ) [1, 9]: no longer present in a manner dependent on the final concentration | sAPP in the cell lysate [1, 9]: no longer present in a manner dependent on the final concentration | βCTF (C99) in the cell lysate [1, 9]: no longer present in a manner dependent on the final concentration | abundance of the NICD in the cell lysate [2]: not decreased | production of Aβ in the culture medium [6]: the production of Aβ in the culture medium was reduced | production of Aβ in the culture medium [7]: the production of Aβ in the culture medium was reduced

MVPVVCDCYCFLSVCFCYSCYIT (Ac-MVPVVCDCYCFLSVCFCYSCYIT-NH2; cysteine pairing not given here) [#5]
cleavage activity of β-secretase against APP (Aβ33-FLAG) [5]: inhibit the cleavage activity of β-secretase against APP more intensely
